Structures are written as SMILES. Numbers after ± are expanded uncertainties.

Data set [1] in a line: refractive index (Na D-line) (dimensionless). Conditions: 298.15 K; 86.5 kPa; Liquid; Standard Abbe refractometry.
For data set [2] the following is noted: 298.15 K, 86.5 kPa, Liquid.

As a reminder, the refractive index is the speed of light in vacuum divided by its phase velocity in the sample. For orientation: speed of sound means how fast a sound wave travels through the sample. What is called mass density is mass per unit of volume. Turning to `CCCCCCCCn1cc[n+](C)c1.[Br-]` [1-methyl-3-octylimidazolium bromide], the refractive index in data set [1] worked out at 1.5217 ± 0.02. In data set [2] (Frequency=3 MHz, Single path-length method), the speed of sound is listed as 1561.8 ± 2.2 m/s. For the same molecule, the mass density in data set [2] (Vibrating tube method) turned out to be 1172.98 ± 2.3 kg/m3.

For the origin of these results see the NIST ThermoML archive (doi:10.1016/j.jct.2019.03.024).
